Measurements: paper PMC2799658, “A Multidimensional Strategy to Detect Polypharmacological Targets in the Absence of Structural and Sequence Homology” (PLoS Computational Biology, 2010)

Assays:
[1] = target: T1, T. brucei UDP-galactose 4′ epimerase (TbGalE) (Trypanosoma brucei, UniProt Q8T8E9); test: enzyme inhibition assay (details in Text S1); assay type: biochemical
T1 construct: gene galE; isolated protein; construct and host not described in main text (assay details in Text S1); 1GY8 is the docked crystal structure
T1 sequence (Q8T8E9 1-395): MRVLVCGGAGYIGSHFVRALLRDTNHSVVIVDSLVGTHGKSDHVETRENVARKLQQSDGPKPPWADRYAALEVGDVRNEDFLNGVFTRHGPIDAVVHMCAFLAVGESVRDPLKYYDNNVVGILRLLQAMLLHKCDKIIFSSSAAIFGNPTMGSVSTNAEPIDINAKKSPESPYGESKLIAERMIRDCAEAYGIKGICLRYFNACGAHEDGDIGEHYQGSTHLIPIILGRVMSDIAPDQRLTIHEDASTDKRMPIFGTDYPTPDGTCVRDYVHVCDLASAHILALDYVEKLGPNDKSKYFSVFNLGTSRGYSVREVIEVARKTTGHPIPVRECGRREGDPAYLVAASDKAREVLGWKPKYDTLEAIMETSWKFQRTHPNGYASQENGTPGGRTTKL

[2] = target: T2, H. sapiens mitochondrial 2-enoyl thioester reductase (HsETR1) (Homo sapiens, UniProt Q9BV79); test: enzyme inhibition assay (details in Text S1); assay type: biochemical
T2 construct: gene MECR; isolated protein; construct and host not described in main text (assay details in Text S1); 1ZSY is the docked crystal structure
T2 sequence (Q9BV79 54-373): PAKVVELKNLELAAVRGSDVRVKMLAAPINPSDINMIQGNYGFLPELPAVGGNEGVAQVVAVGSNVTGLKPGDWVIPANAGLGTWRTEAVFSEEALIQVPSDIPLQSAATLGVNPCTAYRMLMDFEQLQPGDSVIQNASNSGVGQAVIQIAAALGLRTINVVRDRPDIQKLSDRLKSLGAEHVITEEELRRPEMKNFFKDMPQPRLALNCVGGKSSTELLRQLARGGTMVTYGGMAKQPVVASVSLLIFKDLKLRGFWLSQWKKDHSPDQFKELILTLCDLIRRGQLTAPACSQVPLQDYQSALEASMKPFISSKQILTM

O=S(=O)(O)c1cc(O)c2c(O)c(N=Nc3cccc4ccccc34)c(S(=O)(=O)O)cc2c1 [compound 1, 4,5-dihydroxy-3-(1-naphthyldiazenyl)-2,7-naphthalenedisulfonic acid]
IC50 [1]: 0.7 ± 0.2 µM
IC50 [2]: ~33.5 µM
